System: α-H-α-amino acid amide racemase from Ochrobactrum anthropi IA
Assay: Substrate specificity, CFE from E. coli TOP10/pKEC_AZAR_3 (Example 7)
Assay type: biochemical
Details: relative to the activity towards D-leucine amide; 75 mM substrate, 20 mM EDTA, pH 8.0, 37° C.
Procedure: Two pre-cultures of E. coli TOP10/pKEC_AZAR—3 (see Example 4) were prepared by inoculation of 2 erlenmeyer flasks with 100 ml of 2*TY medium (10 g/l Yeast extract, 16 g/l Tryptone, 5 g/l NaCl) containing 50 mg/l of kanamycin with 10 μl of a glycerol stock per flask. After overnight cultivation at 28° C. and 200 rpm, the pre-cultures were pooled, and subsequently used to inoculate 2 erlenmeyer flasks each containing 1 l of the same medium. Also these flasks were cultivated at 28° C. and 200 rpm for 16-18 h. Cells were harvested by centrifugation (15 min. at 6,200×g, 4° C.), washed with 20 mM HEPES-NaOH, pH 7.5, pooled, weighed, and resuspended in a solution containing 20 mM HEPES-NaOH, pH 7.5, 20 μM pyridoxal-5-phosphate, and 1.3 mM of dithiothreitol in a 1:3 ratio of wet weight cells to solution. Then, cells were disintegrated by 10 min. sonification with a Soniprep 150 of MSE operated at maximum amplitude using time intervals of 10 sec. (i.e., 10 sec. sonification, 10 sec. cooling) and cooling in ice/acetone. Particles were removed by centrifugation, after which sucrose was added to the cell free extract to a final concentration of 0.25 M. The resulting cell free extract (CFE) was stored in aliquots at −20° C. E. coli TOP10/pBAD/Myc-HisC (Invitrogen) cells were treated in exactly the same way and served as negative control.
The substrate specificity of the α-H-α-amino acid racemase from O. anthropi IA was determined by measuring the racemase activity of the above-mentioned CFE towards a number of enantiomerically pure amino acid amides. Each reaction mixture of 10 ml (including the CFE) contained 50 mM HEPES-NaOH, pH 8.0, 20 μM pyridoxal-5-phosphate, 0.4 mg/ml BSA, 1 mM dithiothreitol, 20 mM EDTA and 75 mM of one of the amino acid amides tested. Reactions were started by the addition of 1 ml of the thawed CFE of E. coli TOP10/pKEC_AZAR—3 or E. coli TOP10/pBAD/Myc-HisC (blank) and were incubated at 37° C. At regular time intervals samples of 1 ml were taken and transferred to vials containing 1 ml of 1M H3PO4 to stop the reaction. After sufficient dilution of the samples in 0.4 M borate buffer pH 9.4, the mixtures obtained were analyzed using HPLC to determine the exact concentrations of the two amino acid and two amino acid amide enantiomers according to the following method.
The initial activity for the different substrates tested was calculated from the linear parts of the progress curves, in which the conversion was plotted against the reaction time. Use of the linear part of the progress curves secured that only samples taken at time points at which the substrate concentration was still sufficiently high, were used for the calculations. The conversion was calculated by dividing the amount of amino acid and amino acid amide formed via the racemase reaction (so with the opposite stereochemistry compared to the substrate molecule) by the total amount of two amino acid enantiomers and the two amino acid amide enantiomers.

## CC(C)C[C@@H](N)C(N)=O [D-leucine amide]
  Rel. initial activity: 100%
